The test system of assay [1] is E. coli BT3/pACYCSP+pTCHLH1 strain. Kind of assay: Growth of E. coli BT3/pACYCSP+pTCHLH1 (variant tobacco chelatase subunit) with herbicidal compound. Format: cell-based, Escherichia coli. The settings on record: 18 hours culture, Table 6. An excerpt:
(§1) According to the description of Gibson, L. C. D. et al., Proc. Natl. Acad. Sci. USA, 92; p 1941 (1995), the DNA fragment containing bchH gene prepared in Example 1 was digested with the restriction enzymes NdeI and BglII. The resultant DNA fragment was inserted between NdeI restriction site and BamHI restriction site of expression vector pET11a (manufactured by Stratagene) to obtain plasmid pETBCH (FIG. 1). This plasmid pETBCH was introduced into E. coli BL21(DE3) strain competent cells (manufactured by Stratagene) according to the manual attached to the competent cells to obtain E. coli BL21(DE3)/pETBCH strain. The strain was inoculated into 1.5 ml LB liquid culture medium (1% tryptone, 0.5% yeast extract, 0.5% NaCl) containing 100 μg/ml ampicillin in a tube (14×10 mm), and the tube was covered with aluminum foil (hereinafter referred to as dark conditions), cultured with shaking at 37° C. under light of fluorescent lamp (about 8000 lux). When the absorbance at 600 nm of the liquid culture medium became about 0.6, isopropyl β-D-thiogalactopyranoside (IPTG) was added to the liquid culture medium so that the final concentration was 0.4 mM, and the culture was continued for about additional 20 hours. […] In contrast to this, when E. coli BL21(DE3)/pETBCH strain was cultured according to the same manner (with IPTG) except that the tube was not covered with aluminum foil (hereinafter referred to as light conditions), E. coli grew and turned red as above.
The plasmid pTCHLH1 and pCR2.1 prepared in Example 7 were introduced into E. coli BT3/pACYCSP strain prepared in Example 3, respectively according to the method described in Hanahan, D. J., Mol. Biol., 166; p 557 (1983). E. coli BT3/pACYCSP+pTCHLH1 strain bearing plasmids pACYCSP and pTCHLH1, and E. coli BT3/pACYCSP+pCR2.1 strain bearing plasmids pACYCSP and pCR2.1 were obtained by culturing the above strains in YPT medium containing 100 μg/ml ampicillin, 15 μg/ml chloramphenicol and 50 μg/ml kanamycin, respectively.
These E. coli strains were inoculated into YPT medium containing 10 or 1 ppm of the PPO inhibitory-type herbicidal compound represented by Structure 8, 100 μg/ml ampicillin, 15 μg/ml chloramphenicol, 50 μg/ml kanamycin, 10 μg/ml hemin and 50 μg/ml aminolevulinic acid, cultured under dark conditions or light conditions according to the same manner as in Example 2. Then, 18 hours after initiation of culture, the absorbance of the liquid culture medium was measured at 600 nm. By taking the absorbance of the medium without the herbicidal compound as 1, the relative value of the absorbance of the medium containing the herbicidal compound was calculated.

Assay [2] deals with E. coli BT3/pACYCSP+pTVCRP strain. Kind of assay: Growth of E. coli BT3/pACYCSP+pTVCRP (variant Chlamydomonas reinhardtii PPO) with herbicidal compound. Format: cell-based, Escherichia coli. As to conditions: 18 hours culture, Table 9.
Text: as §1
Plasmids pTVCRP and pTV118N prepared in Example 16 were introduced into E. coli BT3/pACYCSP strain prepared in Example 3 respectively according to the method described in Hanahan, D. J., Mol. Biol., 166; p 557 (1983). E. coli BT3/pACYCSP+pTVCRP strain bearing plasmids pACYCSP and pTVCRP, and E. coli BT3/pACYCSP+pTV118N strain bearing plasmids pACYCSP and pTV118N were obtained by culturing the above strains in YPT medium containing 100 μg/ml ampicillin, 15 μg/ml chloramphenicol and 10 μg/ml kanamycin.
These E. coli strains were inoculated into YPT medium containing 10 or 1 ppm of the PPO inhibitory-type herbicidal compound represented by Structure 8, 100 μg/ml ampicillin. 15 μg/ml chloramphenicol, 10 μg/ml kanamycin, 10 μg/ml hemin and 50 μg/ml aminolevulinic acid, cultured under dark conditions or light conditions in the same manner as in Example 2. Then, 18 hours after initiation of culture, the absorbance of liquid culture medium was measured at 600 nm. By taking the absorbance of the medium containing no herbicidal compound as 1, the relative value of the absorbance of the medium containing the herbicidal compound was calculated.

Assay [3] has as its system E. coli BT3/pACYCSP+pHASYS8 strain. In words: Growth of E. coli BT3/pACYCSP+pHASYS8 with herbicidal compound. Format: cell-based, Escherichia coli. The settings on record: 1 ppm, 18 hours culture, Table 16.
Assay [4] concerns tobacco bearing introduced both Arabidopsis thaliana PPO(A220V) gene and gene encoding the variant tobacco chelatase subunit. Kind of assay: Leaf piece chlorophyll test, tobacco with PPO(A220V) gene and variant tobacco chelatase subunit gene. The settings on record: 2.0 ppm, 7 days in a light place, Example 37. Format: in vivo. An excerpt: Tobacco leaf pieces cultured sterilely were infected with the Agrobacterium strain and, according to the same manner as in Example 5, tobacco bearing the introduced both Arabidopsis thaliana PPO(A220V) gene and gene encoding the variant tobacco chelatase subunit was obtained.
Leaves of the tobacco bearing the introduced both Arabidopsis thaliana PPO(A220V) gene and gene encoding the variant tobacco chelatase subunit produced in Example 36, those bearing the introduced Arabidopsis thaliana PPO(A220V) gene produced in Example 35, and the control recombinant tobacco leaves produced in Example 5were collected, and each leaf was divided into the right and left equivalent pieces along the main vein. One of the pieces was treated with an aqueous solution containing 2.0 ppm PPO inhibitory-type herbicidal compound of Structure 8, while the other piece was not treated with the compound. These leaf pieces were placed on MS medium containing 0.8% agar and allowed to stand at room temperature for 7 days in a light place. Then, each leaf piece was ground in 5 ml of 80% aqueous acetone solution in a mortar with a pestle to extract chlorophyll. The extract was diluted 10 times with 80% aqueous acetone solution and the absorbance was measured at 750 nm, 663 nm and 645 nm to calculate the total chlorophyll content according to the method described by Macknney G., J. Biol. Chem. (1941) 140, p 315. […]

Turning to `C#CCOc1cc(N2C(=O)C3=C(CCCC3)C2=O)c(F)cc1Cl` [Structure 8], the Relative absorbance in assay [1] (in the dark, 1 ppm) is given as 0.93; in assay [1] (in the dark, 10 ppm) it was 0.92; in assay [1] (in the light, 1 ppm), 0.89; in assay [1] (in the light, 10 ppm), 0.69; in assay [2] (in the dark, 1 ppm) it was 0.82; in assay [2] (in the dark, 10 ppm), 0.81. Moreover, the Relative absorbance in assay [2] (in the light, 1 ppm) amounted to 0.42; in assay [2] (in the light, 10 ppm) it was 0.23; in assay [3] (in the dark), 1.0; in assay [3] (in the light) it was 0.57. Moreover, the resistant level in assay [4] was 61.6%.
